System: 266295-075-R-J1-PDC spheroid viability
Experiment: Anticancer human tumor 266295-075-R-J1-PDC patient-derived head and neck squamous carcinoma cell line growth inhibition [POLQ]
Details: spheroids with HUVEC and MSC; for IC50: curve of first compound; for viability, T/C: stronger effect = lower value
Procedure, shortened: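 Three-cell-type spheroids modelling solid tumor plus stroma served as the readout system; POL inhibitors were tested individually and in combination, concentration ranges set by clinical Cmax where known.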

[1] = second compound 0.0316 µM, first compound 0.0316 µM
[2] = second compound 0.0316 µM, first compound 0.1 µM
[3] = second compound 0.0316 µM, first compound 0.316 µM
[4] = second compound 0.0316 µM, first compound 1 µM
[5] = second compound 0.0316 µM, first compound 3.16 µM
[6] = second compound 0.0316 µM, first compound 10 µM
[7] = second compound 0.1 µM, first compound 0.0316 µM
[8] = second compound 0.1 µM, first compound 0.1 µM
[9] = second compound 0.1 µM, first compound 0.316 µM
[10] = second compound 0.1 µM, first compound 1 µM
[11] = second compound 0.1 µM, first compound 3.16 µM
[12] = second compound 0.1 µM, first compound 10 µM
[13] = second compound 0.316 µM, first compound 0.0316 µM
[14] = second compound 0.316 µM, first compound 0.1 µM
[15] = second compound 0.316 µM, first compound 0.316 µM
[16] = second compound 0.316 µM, first compound 1 µM
[17] = second compound 0.316 µM, first compound 3.16 µM
[18] = second compound 0.316 µM, first compound 10 µM
[19] = second compound 1 µM, first compound 0.0316 µM
[20] = second compound 1 µM, first compound 0.1 µM
[21] = second compound 1 µM, first compound 0.316 µM
[22] = second compound 1 µM, first compound 1 µM
[23] = second compound 1 µM, first compound 3.16 µM
[24] = second compound 1 µM, first compound 10 µM
[25] = second compound 3.16 µM, first compound 0.0316 µM
[26] = second compound 3.16 µM, first compound 0.1 µM
[27] = second compound 3.16 µM, first compound 0.316 µM
[28] = second compound 3.16 µM, first compound 1 µM
[29] = second compound 3.16 µM, first compound 3.16 µM
[30] = second compound 3.16 µM, first compound 10 µM
[31] = second compound 10 µM, first compound 0.0316 µM
[32] = second compound 10 µM, first compound 0.1 µM
[33] = second compound 10 µM, first compound 0.316 µM
[34] = second compound 10 µM, first compound 1 µM
[35] = second compound 10 µM, first compound 3.16 µM
[36] = second compound 10 µM, first compound 10 µM
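Further: spheroids exposed to compounds for seven days before readout.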

SMILES: Nc1ccn(C2OC(CO)C(O)C2(F)F)c(=O)n1 (stereo unspecified) + Nc1ccc(C#CCN(C(=O)Cc2ncc(C(F)(F)F)cc2C(F)(F)F)c2ccc(F)cc2)nn1
- IC50 (second compound 0.0316 µM): > 10 µM
- IC50 (second compound 0.1 µM): > 10 µM
- IC50 (second compound 0.316 µM): > 10 µM
- IC50 (second compound 1 µM): > 10 µM
- IC50 (second compound 3.16 µM): > 10 µM
- IC50 (second compound 10 µM): > 10 µM
- viability, T/C [1]: 100%
- viability, T/C [2]: 106%
- viability, T/C [3]: 81.6%
- viability, T/C [4]: 77%
- viability, T/C [5]: 93.7%
- viability, T/C [6]: 85.3%
- viability, T/C [7]: 112%
- viability, T/C [8]: 98.8%
- viability, T/C [9]: 72.6%
- viability, T/C [10]: 96.5%
- viability, T/C [11]: 92.1%
- viability, T/C [12]: 80.4%
- viability, T/C [13]: 105%
- viability, T/C [14]: 88%
- viability, T/C [15]: 78.5%
- viability, T/C [16]: 94.8%
- viability, T/C [17]: 95.7%
- viability, T/C [18]: 82%
- viability, T/C [19]: 105%
- viability, T/C [20]: 82.9%
- viability, T/C [21]: 92%
- viability, T/C [22]: 101%
- viability, T/C [23]: 94.3%
- viability, T/C [24]: 82.5%
- viability, T/C [25]: 124%
- viability, T/C [26]: 94.2%
- viability, T/C [27]: 90.5%
- viability, T/C [28]: 95.1%
- viability, T/C [29]: 83.7%
- viability, T/C [30]: 75.7%
- viability, T/C [31]: 93.2%
- viability, T/C [32]: 101%
- viability, T/C [33]: 82.8%
- viability, T/C [34]: 89.7%
- viability, T/C [35]: 75.5%
- viability, T/C [36]: 72.2%

SMILES: CNCc1ccc(-c2[nH]c3cc(F)cc4c3c2CCNC4=O)cc1 + Nc1ccc(C#CCN(C(=O)Cc2ncc(C(F)(F)F)cc2C(F)(F)F)c2ccc(F)cc2)nn1
- IC50 (second compound 0.0316 µM): > 10 µM
- IC50 (second compound 0.1 µM): > 10 µM
- IC50 (second compound 0.316 µM): > 10 µM
- IC50 (second compound 1 µM): > 10 µM
- IC50 (second compound 3.16 µM): > 10 µM
- IC50 (second compound 10 µM): > 10 µM
- viability, T/C [1]: 98.8%
- viability, T/C [2]: 89.6%
- viability, T/C [3]: 93.5%
- viability, T/C [4]: 103%
- viability, T/C [5]: 101%
- viability, T/C [6]: 113%
- viability, T/C [7]: 116%
- viability, T/C [8]: 97%
- viability, T/C [9]: 95.6%
- viability, T/C [10]: 83.2%
- viability, T/C [11]: 102%
- viability, T/C [12]: 111%
- viability, T/C [13]: 102%
- viability, T/C [14]: 107%
- viability, T/C [15]: 101%
- viability, T/C [16]: 87.2%
- viability, T/C [17]: 98.4%
- viability, T/C [18]: 70.2%
- viability, T/C [19]: 93.3%
- viability, T/C [20]: 86.9%
- viability, T/C [21]: 123%
- viability, T/C [22]: 87.2%
- viability, T/C [23]: 111%
- viability, T/C [24]: 119%
- viability, T/C [25]: 88.1%
- viability, T/C [26]: 97.9%
- viability, T/C [27]: 81.9%
- viability, T/C [28]: 97.8%
- viability, T/C [29]: 100%
- viability, T/C [30]: 105%
- viability, T/C [31]: 92.8%
- viability, T/C [32]: 94.8%
- viability, T/C [33]: 99.5%
- viability, T/C [34]: 91%
- viability, T/C [35]: 87%
- viability, T/C [36]: 131%

SMILES: O=C(c1cc(Cc2n[nH]c(=O)c3ccccc23)ccc1F)N1CCN(C(=O)C2CC2)CC1 + Cc1cccc(N(C)C(=O)C2C(O)CCN2c2nc(C)cc(C(F)(F)F)c2C#N)c1
- IC50 (second compound 0.0316 µM): > 10 µM
- IC50 (second compound 0.1 µM): > 10 µM
- IC50 (second compound 0.316 µM): > 10 µM
- IC50 (second compound 1 µM): > 10 µM
- IC50 (second compound 3.16 µM): > 10 µM
- IC50 (second compound 10 µM): > 10 µM
- viability, T/C [1]: 91%
- viability, T/C [2]: 104%
- viability, T/C [3]: 80.3%
- viability, T/C [4]: 85.6%
- viability, T/C [5]: 93.2%
- viability, T/C [6]: 104%
- viability, T/C [7]: 95.5%
- viability, T/C [8]: 103%
- viability, T/C [9]: 91.4%
- viability, T/C [10]: 89.6%
- viability, T/C [11]: 99.3%
- viability, T/C [12]: 78%
- viability, T/C [13]: 86.6%
- viability, T/C [14]: 86.5%
- viability, T/C [15]: 91.7%
- viability, T/C [16]: 91.4%
- viability, T/C [17]: 107%
- viability, T/C [18]: 75.3%
- viability, T/C [19]: 121%
- viability, T/C [20]: 110%
- viability, T/C [21]: 89.5%
- viability, T/C [22]: 92.1%
- viability, T/C [23]: 82.5%
- viability, T/C [24]: 85.9%
- viability, T/C [25]: 92.8%
- viability, T/C [26]: 97.1%
- viability, T/C [27]: 93.5%
- viability, T/C [28]: 110%
- viability, T/C [29]: 121%
- viability, T/C [30]: 89%
- viability, T/C [31]: 101%
- viability, T/C [32]: 99%
- viability, T/C [33]: 95.1%
- viability, T/C [34]: 107%
- viability, T/C [35]: 115%
- viability, T/C [36]: 94.6%
